According to publication PMC6696115, “Characterization of Antimicrobial, Antioxidant, and Leishmanicidal Activities of Schiff Base Derivatives of 4-Aminoantipyrine” (Molecules, 2019):
In brackets after ≈: the same amount, converted by molar mass.

Assays:
[1] = test system: Aspergillus niger ATCC 6275; assay: antimicrobial serial microdilution, A. niger; assay type: cell-based; conditions: Aspergillus niger, ATCC6275; serial microdilution, 96-well plates, 35 °C, 48 h, max 2% DMSO
Experimental: (§1) The in vitro antifungal and antimicrobial activities were determined by testing the Schiff bases against the fungi Saccharomyces cerevisiae, Candida albicans, and Aspergillus niger and the bacteria Staphylococcus aureus, Enterococcus faecalis (Gram-positive), Pseudomonas aeruginosa, and Escherichia coli (Gram-negative).
(§2) The bacterial inoculum was prepared by emulsifying overnight colonies from an agar medium in broth (Mueller–Hinton broth). The suspensions were adjusted to a final organism density of 5 × 10^5 colony former units (cfu)/mL. […] The emulsifying of A. niger cultures was done by pouring 5 mL of saline and 0.1% of polysorbate 80 over the Petri dishes. Then, 100 µL of this suspension were diluted in 5 mL of saline and adjusted to an optical density of 0.1 at 530 nm. For S. cerevisiae, fresh exponential YPAD (yeast extract 1%, peptone 2%, adenine 0.004%, […]) cultures were adjusted to an optical density of 0.5 at 600 nm, and then diluted to the equivalent of 1 × 10^4 cells/mL (10^−3 dilution). Stock solutions of Schiff bases were prepared by dissolving them in DMSO at 10 mg/mL. […] The range of concentrations used was empirically selected for each organisms and the Schiff base. Drug sensitivities were assayed by serial dilutions in 96-well plates as previously described. A row with media and cells but without drug was the positive control. The blank was done by preparing a row with media and drugs, but without cells. Plates were fitted with a tight lid before incubation to prevent desiccation. […] The minimum bactericidal concentration (MBC) and fungicidal concentration (MFC) were determined by spreading 100 µL of culture from each well onto a plate (Mueller–Hinton agar for bacteria, Sabouraud dextrose agar for fungi except S. cerevisiae, and YPAD for S. cerevisiae).

[2] = test system: S. cerevisiae (backgrounds W303 and BY4741); assay: antimicrobial serial microdilution, S. cerevisiae; assay type: cell-based, Saccharomyces cerevisiae; conditions: Saccharomyces cerevisiae; serial microdilution, 35 °C, 48 h; read-out: MIC S. cerevisiae
Experimental: as §1, §2

[3] = test system: Enterococcus faecalis ATCC 29212; assay: antimicrobial serial microdilution, E. faecalis; assay type: cell-based; conditions: Enterococcus faecalis, ATCC29212; serial microdilution, 37 °C, 24 h
Experimental: as §1, §2

[4] = test system: Staphylococcus aureus ATCC 29213; assay: antimicrobial serial microdilution, S. aureus; assay type: cell-based; conditions: Staphylococcus aureus, ATCC29213; serial microdilution, 37 °C, 24 h
Experimental: as §1, §2

[5] = test system: Escherichia coli ATCC 25922; assay: antimicrobial serial microdilution, E. coli; assay type: cell-based; conditions: serial microdilution, 37 °C, 24 h
Experimental: as §1, §2

[6] = test system: P. aeruginosa ATCC 27853; assay: antimicrobial serial microdilution, P. aeruginosa; assay type: cell-based; conditions: Pseudomonas aeruginosa, ATCC27853, 37 °C, 24 h
Experimental: as §1, §2

[7] = DPPH radical scavenging assay; assay type: biochemical; conditions: statement in words
Experimental: This was used immediately. The experimental procedure was adapted from the literature. Briefly, in a 96-well plate, 100 µL of solution of DPPH (2, 2-diphenyl-1-picrylhydrazyl) radical (0.2 mM in methanol) was added to 100 µL of methanolic solutions of 3a–j, 4, or 5, prepared as serial two-fold dilutions from the stock solution. Standards were also prepared in the same concentrations.
The percentage of DPPH scavenging was then calculated by using the following formula: % DPPH scavenging=100∗Asample+DPPH−Asample blank/ADPPH−Asolvent

[8] = test system: S. cerevisiae wild type (BY4741); assay: growth inhibition (OD600) of wild-type yeast, oxidative effect; assay type: cell-based, Saccharomyces cerevisiae
Experimental: (§3) Next, we wanted to evaluate the oxidative activity. To do this, drop test assays were performed with wild-type (W303 and BY4741 backgrounds) and sod1 (BY4741 background) yeast cells in the presence of 200 µg/mL of the analyzed Schiff bases (Figure 3). The SOD1 gene encodes superoxide dismutase 1, an enzyme with a major role in detoxifying ROS species generated during metabolism or because of environmental exposure. sod1 mutant cells are unprotected against oxidative agents, decreasing survival in their presence.
(§4) (A) Drop test of serial dilution of yeast cell cultures (wild type from genetic background W303, wild type from genetic background BY4741, and sod1 mutant from genetic background BY4741) exposed to Schiff bases at 200 µg/mL. A control without drug and with 2% DMSO are included.
as §2

[9] = test system: S. cerevisiae sod1 mutant (BY4741); assay: growth inhibition (OD600) of sod1 mutant yeast, oxidative effect; assay type: cell-based, Saccharomyces cerevisiae
Experimental: as §3, §4, §2

[10] = test system: S. cerevisiae sod1 mutant cells (background BY4741); assay: drop test, sod1 mutant yeast; assay type: cell-based, Saccharomyces cerevisiae; conditions: 200 µg/mL, 48 h, 25 °C, compared to control
Experimental: as §3, with “presence. […] Also, wild-type cells are shown as control, unaffected by the Schiff bases.” for “presence.”
For the drop test with S. cerevisiae, wild-type strain (background W303), and wild type and sod1 mutant cells (background BY4741) were grown overnight in YPAD media until an optical density of 0.5 at 600 nm was reached (equivalent to 1 × 10^7 cells/mL). Three serial dilutions were prepared and 5 µL of each was spotted onto a plate (approximately 1 × 10^5, 1 × 10^4, 1 × 10^3, and 1 × 10^2 cells/spot). YPAD plates were supplemented with 200 µg/mL of each Schiff base, and one plate supplemented with 2% DMSO and one plate with YPAD without any drug were used as controls. Plates were incubated at 25 °C for 24, 48, and 72 h.

[11] = test system: RAW 264.7 cells; assay: cell viability, MTT dye assay; assay type: cell-based, murine; conditions: RAW 264.7, exposure to 400 µM, 48 h
Experimental: The specificity and selectivity for the pathogen target is a key point for any potential drug.
The medium was renewed once a week. The viability was determined using MTT (thiazolyl blue tetrazolium bromide) dye assay as described previously for leishmanicidal activity assessment, with some variations. Here, 5 × 10^4 cells/well in a final volume of 100 µL were deposited into a 96-well plate in triplicate. Saponin (2 and 4 mg/mL) and untreated cells were used as the positive control and negative control, respectively. Schiff bases were dissolved in DMSO to obtain different serial concentrations (0.01–2000 µM). […] Cells were pelleted by centrifugation at 4400 rpm for 10 minutes and the media was removed. Next, 100 µL/well of DMSO were added and the absorbance at 570 nm was recorded. A reference wavelength of 630 nm was used for background subtraction.

For `Cc1c(N=Cc2ccccc2O)c(=O)n(-c2ccccc2)n1C` [Compound 3b, 4-(2-Hydroxybenzylideneamino)-1,5-dimethyl-2-phenyl-1H-pyrazol-3(2H)-one], which MIC [1] is on record?
Its MIC is greater than 200 µg/mL.

And the MIC [2]?
The MIC was greater than 200 µg/mL.

What about the MIC [3] of the same molecule?
The MIC was greater than 200 µg/mL.

And the MIC [4]?
The MIC was greater than 200 µg/mL.

What about the IC50 ([5]; Escherichia coli, ATCC25922) of the same molecule?
Its IC50 is 12.1 µg/mL (≈ 39.4 µM).

What about the MIC ([5]; Escherichia coli, ATCC25922) of the same molecule?
The MIC was 49.8 ± 5 µg/mL (≈ 162 µM).

What about the “NIC E. coli” value ([5]; noninhibitory concentration) of the same molecule?
Its value is 2.8 ± 0.5 µg/mL.

And the MIC [6]?
The MIC was greater than 200 µg/mL.

And the “antioxidant activity detected in the DPPH assay” value [7]?
Its value is “no significant antioxidant activity”.

What about the IC50 ([8]; Saccharomyces cerevisiae, unit inferred) of the same molecule?
The IC50 was 192 µg/mL (≈ 625 µM).

What about the “NIC Wt” value ([8]; unit not given) of the same molecule?
The value was 178.0 ± 2.1.

What about the “MIC Wt” value ([8]; unit not given, in µg/mL) of the same molecule?
The value was 208.2 ± 4.0.

And the IC50 ([9]; Saccharomyces cerevisiae, read-out: IC50 sod1)?
The IC50 was 101 µg/mL (≈ 328 µM).

And the “NIC sod1” value ([9]; sod1 mutant BY4741, unit not given)?
The value was 53.3 ± 0.1.

What about the “MIC sod1” value ([9]; sod1 mutant BY4741, unit not given, in µg/mL) of the same molecule?
The value was 164.1 ± 0.1.

What about the “sensitivity of sod1 cells in drop test” value [10] of the same molecule?
The value was “sensitive”.

What about the “% Live Cells” value [11] of the same molecule?
The value was 19.3 ± 0.2%.
